Experimental data as given in patent US9108944B2, “Androgen receptor modulators and uses thereof” (ARAGON PHARMACEUTICALS, INC., priority 2010, dated 2015).

Assays:
[1] = target: T1, AR-VP16 (Homo sapiens, UniProt P10275); assay: AR-VP16 DNA Binding Assay, agonist mode (HepG2 cells); type: cell-based; conditions: Emax >20x DMSO control = agonist
T1 sequence (P10275 560-920 limits assumed): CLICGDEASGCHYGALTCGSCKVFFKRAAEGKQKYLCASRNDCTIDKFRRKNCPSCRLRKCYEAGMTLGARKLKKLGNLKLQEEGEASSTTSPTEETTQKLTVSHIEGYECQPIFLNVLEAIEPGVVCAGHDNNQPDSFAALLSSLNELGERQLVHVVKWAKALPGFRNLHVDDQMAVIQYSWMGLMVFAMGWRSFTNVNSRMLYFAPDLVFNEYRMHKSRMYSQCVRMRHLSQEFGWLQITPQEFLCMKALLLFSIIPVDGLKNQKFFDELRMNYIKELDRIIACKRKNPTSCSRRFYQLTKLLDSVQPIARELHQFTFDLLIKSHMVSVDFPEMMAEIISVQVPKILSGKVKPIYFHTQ

[2] = target: T1, AR-VP16; assay: AR-VP16 DNA Binding Assay, antagonist mode (HepG2 cells, 0.1 nM R1881); type: cell-based
Outline: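 Transfected HepG2 cells expressing AR-VP16 received serially diluted compound in charcoal-stripped-serum RPMI the day after transfection, with 0.1 nM R1881 (final) added only for antagonist testing. After 48 h, cells were lysed for measurement.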

SMILES | ARVP16 DNA Binding Assay (Agonist mode): Agonist? [1] | IC50 [2] [nM]
N#Cc1ncc(N2C(=O)C3(CCC3)N(c3ccc(C(=O)Nc4cccnc4)c(F)c3)C2=S)cc1C(F)(F)F [Compound 262, 4-(7-(6-Cyano-5-(trifluoromethyl)pyridin-3-yl)-8-oxo-6-thioxo-5,7-diazaspiro[3.4]octan-5-yl)-2-fluoro-N-(pyridin-3-yl)benzamide] | No (Agonist defined as a compound whose Emax in the ARVP16 DNA Binding Assay (Agonist mode) is >20x DMSO control) | < 1000
N#Cc1ncc(N2C(=O)C3(CCC3)N(c3cccc(-c4ccccc4)c3)C2=S)cc1C(F)(F)F [Compound 14, 5-(5-([1,1′-Biphenyl]-3-yl)-8-oxo-6-thioxo-5,7-diazaspiro[3.4]octan-7-yl)-3-(trifluoromethyl)picolinonitrile] | No (Agonist defined as a compound whose Emax in the ARVP16 DNA Binding Assay (Agonist mode) is >20x DMSO control) | > 1000
Cc1cc(N2C(=O)C3(CCC3)N(c3ccc(C(=O)Nc4ccccc4)c(F)c3)C2=S)cnc1C#N [Compound 272, 4-(7-(6-Cyano-5-methylpyridin-3-yl)-8-oxo-6-thioxo-5,7-diazaspiro[3.4]octan-5-yl)-2-fluoro-N-phenylbenzamide] | No (Agonist defined as a compound whose Emax in the ARVP16 DNA Binding Assay (Agonist mode) is >20x DMSO control) | < 1000
NC(=O)c1ncc(N2C(=O)C3(CCC3)N(c3ccc(F)c(C(=O)O)c3)C2=S)cc1C(F)(F)F [Compound 229, 5-(7-(6-Carbamoyl-5-(trifluoromethyl)pyridin-3-yl)-8-oxo-6-thioxo-5,7-diazaspiro[3.4]octan-5-yl)-2-fluorobenzoic acid] | No (Agonist defined as a compound whose Emax in the ARVP16 DNA Binding Assay (Agonist mode) is >20x DMSO control) | < 1000
CN1CCC(Oc2ccc(N3C(=S)N(c4cnc(C#N)c(C(F)(F)F)c4)C(=O)C34CCC4)c(F)c2)CC1 [Compound 190, 5-(5-(2-Fluoro-4-((1-methylpiperidin-4-yl)oxy)phenyl)-8-oxo-6-thioxo-5,7-diazaspiro[3.4]octan-7-yl)-3-(trifluoromethyl)picolinonitrile] | No (Agonist defined as a compound whose Emax in the ARVP16 DNA Binding Assay (Agonist mode) is >20x DMSO control) | < 1000
N#Cc1ncc(N2C(=O)C3(CCC3)N(c3ccc(C(=O)NCCc4ccncc4)c(F)c3)C2=S)cc1C(F)(F)F [Compound 238, 4-(7-(6-Cyano-5-(trifluoromethyl)pyridin-3-yl)-8-oxo-6-thioxo-5,7-diazaspiro[3.4]octan-5-yl)-2-fluoro-N-(2-(pyridin-4-yl)ethyl)benzamide] | No (Agonist defined as a compound whose Emax in the ARVP16 DNA Binding Assay (Agonist mode) is >20x DMSO control) | > 1000
CN1CCN(c2ccc(N3C(=S)N(c4cnc(C#N)c(C(F)(F)F)c4)C(=O)C34CCC4)cc2)CC1 [Compound 90, 5-(5-(4-(4-Methylpiperazin-1-yl)phenyl)-8-oxo-6-thioxo-5,7-diazaspiro[3.4]octan-7-yl)-3-(trifluoromethyl)picolinonitrile] | No (Agonist defined as a compound whose Emax in the ARVP16 DNA Binding Assay (Agonist mode) is >20x DMSO control) | > 1000
CN(CCCNC(=O)c1ccc(N2C(=S)N(c3cnc(C#N)c(C(F)(F)F)c3)C(=O)C23CCC3)cc1F)C1CCCC1 [Compound 307, 4-(7-(6-Cyano-5-(trifluoromethyl)pyridin-3-yl)-8-oxo-6-thioxo-5,7-diazaspiro[3.4]octan-5-yl)-N-(3-(cyclopentyl(methyl)amino)propyl)-2-fluorobenzamide] | No (Agonist defined as a compound whose Emax in the ARVP16 DNA Binding Assay (Agonist mode) is >20x DMSO control) | < 1000
N#Cc1ccc(N2C(=S)N(c3cnc(C#N)c(C(F)(F)F)c3)C(=O)C23CCC3)cc1 [Compound 12, 5-(5-(4-Cyanophenyl)-8-oxo-6-thioxo-5,7-diazaspiro[3.4]octan-7-yl)-3-(trifluoromethyl)picolinonitrile] | No (Agonist defined as a compound whose Emax in the ARVP16 DNA Binding Assay (Agonist mode) is >20x DMSO control) | < 1000
Cc1cc(N2C(=O)C3(CCC3)N(c3ccc(C(=O)Nc4cccc(F)c4)c(F)c3)C2=S)cnc1C#N [Compound 298, 4-(7-(6-Cyano-5-methylpyridin-3-yl)-8-oxo-6-thioxo-5,7-diazaspiro[3.4]octan-5-yl)-2-fluoro-N-(3-fluorophenyl)benzamide] | No (Agonist defined as a compound whose Emax in the ARVP16 DNA Binding Assay (Agonist mode) is >20x DMSO control) | < 1000
N#Cc1ncc(N2C(=O)C3(CCC3)N(c3ccc(OCC(=O)O)c(F)c3)C2=S)cc1C(F)(F)F [Compound 228, 2-(4-(7-(6-Cyano-5-(trifluoromethyl)pyridin-3-yl)-8-oxo-6-thioxo-5,7-diazaspiro[3.4]octan-5-yl)-2-fluorophenoxy)acetic acid] | No (Agonist defined as a compound whose Emax in the ARVP16 DNA Binding Assay (Agonist mode) is >20x DMSO control) | > 1000
Cc1cc(N2C(=O)C3(CCC3)N(c3ccc(OC4CCSCC4)cc3)C2=S)cnc1C#N [Compound 195, 3-Methyl-5-(8-oxo-5-(4-((tetrahydro-2H-thiopyran-4-yl)oxy)phenyl)-6-thioxo-5,7-diazaspiro[3.4]octan-7-yl)picolinonitrile] | No (Agonist defined as a compound whose Emax in the ARVP16 DNA Binding Assay (Agonist mode) is >20x DMSO control) | < 1000
CN1CCN(CCOc2cc(N3C(=S)N(c4cnc(C#N)c(C(F)(F)F)c4)C(=O)C34CCC4)ccc2F)CC1 [Compound 166, 5-(5-(4-Fluoro-3-(2-(4-methylpiperazin-1-yl)ethoxy)phenyl)-8-oxo-6-thioxo-5,7-diazaspiro[3.4]octan-7-yl)-3-(trifluoromethyl)picolinonitrile] | No (Agonist defined as a compound whose Emax in the ARVP16 DNA Binding Assay (Agonist mode) is >20x DMSO control) | > 1000
Cc1cc(N2C(=S)N(c3cnc(C#N)c(C)c3)C(=O)C23CCC3)ccc1C(N)=O [Compound 233, 4-(7-(6-Cyano-5-methylpyridin-3-yl)-8-oxo-6-thioxo-5,7-diazaspiro[3.4]octan-5-yl)-2-methylbenzamide] | No (Agonist defined as a compound whose Emax in the ARVP16 DNA Binding Assay (Agonist mode) is >20x DMSO control) | > 1000
N#Cc1ncc(N2C(=O)C3(CCC3)N(c3ccc(C(=O)NCC4CCCC4)c(F)c3)C2=S)cc1C(F)(F)F [Compound 283, 4-(7-(6-Cyano-5-(trifluoromethyl)pyridin-3-yl)-8-oxo-6-thioxo-5,7-diazaspiro[3.4]octan-5-yl)-N-(cyclopentylmethyl)-2-fluorobenzamide] | No (Agonist defined as a compound whose Emax in the ARVP16 DNA Binding Assay (Agonist mode) is >20x DMSO control) | < 1000
Cc1cc(N2C(=O)C3(CCC3)N(c3ccc(OC4CCN(C)CC4)c(F)c3)C2=S)cnc1C#N [Compound 192, 5-(5-(3-Fluoro-4-((1-methylpiperidin-4-yl)oxy)phenyl)-8-oxo-6-thioxo-5,7-diazaspiro[3.4]octan-7-yl)-3-methylpicolinonitrile] | No (Agonist defined as a compound whose Emax in the ARVP16 DNA Binding Assay (Agonist mode) is >20x DMSO control) | > 1000
N#Cc1ncc(N2C(=O)C3(CCC3)N(c3ccccc3Oc3ccccc3)C2=S)cc1C(F)(F)F [Compound 23, 5-(8-Oxo-5-(2-phenoxyphenyl)-6-thioxo-5,7-diazaspiro[3.4]octan-7-yl)-3-(trifluoromethyl)picolinonitrile] | No (Agonist defined as a compound whose Emax in the ARVP16 DNA Binding Assay (Agonist mode) is >20x DMSO control) | > 1000
COc1ccc(N2C(=S)N(c3cnc(C#N)c(C(F)(F)F)c3)C(=O)C23CCC3)cc1F [Compound 203, 5-(5-(3-Fluoro-4-methoxyphenyl)-8-oxo-6-thioxo-5,7-diazaspiro[3.4]octan-7-yl)-3-(trifluoromethyl)picolinonitrile] | No (Agonist defined as a compound whose Emax in the ARVP16 DNA Binding Assay (Agonist mode) is >20x DMSO control) | < 1000
N#Cc1ncc(N2C(=O)C3(CCC3)N(c3ccc(OCCC4CCOCC4)c(F)c3)C2=S)cc1C(F)(F)F [Compound 180, 5-(5-(3-Fluoro-4-(2-(tetrahydro-2H-pyran-4-yl)ethoxy)phenyl)-8-oxo-6-thioxo-5,7-diazaspiro[3.4]octan-7-yl)-3-(trifluoromethyl)picolinonitrile] | Yes (Agonist defined as a compound whose Emax in the ARVP16 DNA Binding Assay (Agonist mode) is >20x DMSO control) | < 1000
N#Cc1ncc(N2C(=O)C3(CCC3)N(c3ccc(OCCc4ccccn4)c(F)c3)C2=S)cc1C(F)(F)F [Compound 130, 5-(5-(3-Fluoro-4-(2-(pyridin-2-yl)ethoxy)phenyl)-8-oxo-6-thioxo-5,7-diazaspiro[3.4]octan-7-yl)-3-(trifluoromethyl)picolinonitrile] | No (Agonist defined as a compound whose Emax in the ARVP16 DNA Binding Assay (Agonist mode) is >20x DMSO control) | < 1000
